Experiments:
[1] = tested on: Escherichia coli; assay: Potentiation of meropenem-induced antibacterial activity against Escherichia coli C1580 expressing VIM-2 assessed as fold reduction in meropenem MIC at 10 ug/ml incubated for 18 to 20 hrs by CLSI based broth microtiter dilution method; format: functional; settings: dose 10 µg/ml; time 18-20 hrs
[2] = tested on: Escherichia coli; assay: Potentiation of meropenem-induced antibacterial activity against Escherichia coli C1541 expressing IMP-1 assessed as fold reduction in meropenem MIC at 10 ug/ml incubated for 18 to 20 hrs by CLSI based broth microtiter dilution method; format: functional; settings: dose 10 µg/ml; time 18-20 hrs
[3] = Inhibition of bacterial VIM-2 (27 to 266 residues) expressed in Escherichia coli Transetta (DE3) using FC-5 as substrate preincubated with enzyme for 10 mins followed by substrate addition by fluorescence based analysis; design: species or system Bacteria
[4] = tested on: Escherichia coli; assay: Potentiation of meropenem-induced antibacterial activity against Escherichia coli C1580 expressing VIM-2 assessed as meropenem MIC at 10 ug/ml incubated for 18 to 20 hrs by CLSI based broth microtiter dilution method (reference value: 32 ug/ml); format: functional; settings: dose 10 µg/ml, time 18-20 hrs
[5] = Inhibition of bacterial recombinant full length C-terminal-TEV-His6-tagged VIM-1 expressed in Escherichia coli Transetta using FC-5 as substrate preincubated with enzyme for 10 mins followed by substrate addition by fluorescence based analysis; design: species or system Bacteria
[6] = Inhibition of bacterial recombinant full length N-terminal-TEV-His6-tagged VIM-5 expressed in Escherichia coli Transetta using FC-5 as substrate preincubated with enzyme for 10 mins followed by substrate addition by fluorescence based analysis; design: species or system Bacteria
[7] = Inhibition of bacterial NDM-1 (1 to 270 residues) expressed in Escherichia coli Transetta (DE3) using FC-5 as substrate preincubated with enzyme for 10 mins followed by substrate addition by fluorescence based analysis; design: species or system Bacteria
[8] = Inhibition of bacterial IMP-1 (1 to 246 residues) expressed in Escherichia coli Transetta (DE3) using FC-5 as substrate preincubated with enzyme for 10 mins followed by substrate addition by fluorescence based analysis; design: species or system Bacteria
[9] = tested on: Escherichia coli; assay: Potentiation of meropenem-induced antibacterial activity against Escherichia coli C1541 expressing VIM-2 assessed as meropenem MIC at 10 ug/ml incubated for 18 to 20 hrs by CLSI based broth microtiter dilution method (reference value: 16 ug/ml); format: functional; settings: dose 10 µg/ml, time 18-20 hrs
[10] = tested on: Escherichia coli; assay: Potentiation of meropenem-induced antibacterial activity against Escherichia coli C1542 expressing VIM-2 assessed as meropenem MIC at 10 ug/ml incubated for 18 to 20 hrs by CLSI based broth microtiter dilution method (reference value: 16 ug/ml); format: functional; settings: dose 10 µg/ml, time 18-20 hrs
[11] = tested on: Escherichia coli; assay: Potentiation of meropenem-induced antibacterial activity against Escherichia coli C1541 expressing IMP-1 assessed as meropenem MIC at 10 ug/ml incubated for 18 to 20 hrs by broth microtiter dilution method (reference value: 32 ug/ml); format: functional; settings: dose 10 µg/ml, time 18-20 hrs
[12] = tested on: Pseudomonas aeruginosa; assay: Potentiation of meropenem-induced antibacterial activity against Pseudomonas aeruginosa W35 expressing VIM-2 assessed as meropenem MIC at 100 ug/ml incubated for 18 to 20 hrs in presence of meropenem by CLSI based broth microtiter dilution method (reference value: 64 ug/ml); format: functional; settings: dose 100 µg/ml, time 18-20 hrs
[13] = tested on: Pseudomonas aeruginosa; assay: Potentiation of meropenem-induced antibacterial activity against Pseudomonas aeruginosa 5621 expressing VIM-2 assessed as meropenem MIC at 100 ug/ml incubated for 18 to 20 hrs in presence of meropenem by CLSI based broth microtiter dilution method (reference value: 64 ug/ml); format: functional; settings: dose 100 µg/ml, time 18-20 hrs
[14] = tested on: Escherichia coli; assay: Potentiation of meropenem-induced antibacterial activity against Escherichia coli C1541 expressing VIM-2 assessed as fold reduction in meropenem MIC at 10 ug/ml incubated for 18 to 20 hrs by CLSI based broth microtiter dilution method; format: functional; settings: dose 10 µg/ml; time 18-20 hrs
[15] = tested on: Pseudomonas aeruginosa; assay: Potentiation of meropenem-induced antibacterial activity against Pseudomonas aeruginosa 5621 expressing VIM-2 assessed as fold reduction in meropenem MIC at 100 ug/ml incubated for 18 to 20 hrs by CLSI based broth microtiter dilution method; format: functional; settings: dose 100 µg/ml; time 18-20 hrs
[16] = tested on: Escherichia coli; assay: Potentiation of meropenem-induced antibacterial activity against Escherichia coli C1542 expressing VIM-2 assessed as fold reduction in meropenem MIC at 10 ug/ml incubated for 18 to 20 hrs by CLSI based broth microtiter dilution method; format: functional; settings: dose 10 µg/ml; time 18-20 hrs
[17] = tested on: Pseudomonas aeruginosa; assay: Potentiation of meropenem-induced antibacterial activity against Pseudomonas aeruginosa W35 expressing VIM-2 assessed as fold reduction in meropenem MIC at 100 ug/ml incubated for 18 to 20 hrs by CLSI based broth microtiter dilution method; format: functional; settings: dose 100 µg/ml; time 18-20 hrs
[18] = tested on: Escherichia coli; assay: Synergistic antibacterial activity against Escherichia coli C1541 expressing VIM-2 assessed as fractional inhibitory concentration index incubated for 18 to 20 hrs in presence of meropenem by checkerboard microdilution assay; format: functional; settings: time 18-20 hrs
[19] = Inhibition of bacterial VIM-2 (27 to 266 residues) expressed in Escherichia coli Transetta (DE3) using FC-5 as substrate preincubated with enzyme for 10 mins followed by substrate addition in presence of 1 uM Zn2+ by fluorescence based analysis; design: species or system Bacteria
[20] = Inhibition of bacterial VIM-2 (27 to 266 residues) expressed in Escherichia coli Transetta (DE3) using FC-5 as substrate preincubated with enzyme for 10 mins followed by substrate addition in presence of 100 uM Zn2+ by fluorescence based analysis; design: species or system Bacteria
[21] = tested on: Escherichia coli; assay: Synergistic antibacterial activity against Escherichia coli C1541 expressing VIM-2 assessed as fractional inhibitory concentration index incubated for 18 to 20 hrs in presence of meropenem and 1 uM of zinc sulfate by checkerboard microdilution assay; format: functional; settings: time 18-20 hrs
[22] = tested on: Escherichia coli; assay: Synergistic antibacterial activity against Escherichia coli C1541 expressing VIM-2 assessed as fractional inhibitory concentration index incubated for 18 to 20 hrs in presence of meropenem and 100 uM of zinc sulfate by checkerboard microdilution assay; format: functional; settings: time 18-20 hrs
[23] = tested on: Pseudomonas aeruginosa; assay: Synergistic antibacterial activity against Pseudomonas aeruginosa W35 expressing VIM-2 assessed as fractional inhibitory concentration index incubated for 18 to 20 hrs in presence of meropenem by checkerboard microdilution assay; format: functional; settings: time 18-20 hrs
[24] = Solubility of the compound in water; format: physicochemical
[25] = tested on: Escherichia coli; assay: Potentiation of meropenem-induced antibacterial activity against Escherichia coli C1541 expressing IMP-1 assessed as fold reduction in meropenem MIC at 100 ug/ml incubated for 18 to 20 hrs by CLSI based broth microtiter dilution method; format: functional; settings: dose 100 µg/ml; time 18-20 hrs

SMILES	IC50 [3]	MIC [4]	IC50 [5]	IC50 [6]	IC50 [7]	IC50 [8]	MIC [9]	MIC [10]	MIC [11]	MIC [12]	MIC [13]	fold change (FC) [1]	fold change (FC) [2]	fold change (FC) [14]	fold change (FC) [15]	fold change (FC) [16]	fold change (FC) [17]	further results
NCc1ccc(Cn2ccnc2C(=O)O)cc1	3.89 µM	16 µg/mL	8.55 µM	18.2 µM	165 µM	75.5 µM	8 µg/mL	16 µg/mL	32 µg/mL	16 µg/mL	32 µg/mL	2	1	2	2	1	4	–
O=C(O)c1nccn1Cc1cc(Br)cs1	0.43 µM	4 µg/mL	24.9 µM	2.47 µM	111 µM	20.3 µM	2 µg/mL	4 µg/mL	32 µg/mL	32 µg/mL	64 µg/mL	8	1	8	1	4	2	–
O=C(O)c1nccn1Cc1ccccc1	0.48 µM	16 µg/mL	4.14 µM	1.55 µM	63.5 µM	32.1 µM	16 µg/mL	16 µg/mL	32 µg/mL	32 µg/mL	64 µg/mL	2	1	1	1	1	2	–
Cc1cnc(C(=O)O)n1Cc1ccccc1	0.48 µM	1 µg/mL	3.18 µM	2.2 µM	29.7 µM	86.5 µM	< 0.25 µg/mL	0.5 µg/mL	32 µg/mL	16 µg/mL	32 µg/mL	32	1	>64	2	32	4	–
N#Cc1ccc(Cn2ccnc2C(=O)O)cc1	0.29 µM	1 µg/mL	8.69 µM	0.12 µM	227 µM	30.1 µM	< 0.25 µg/mL	< 0.25 µg/mL	32 µg/mL	32 µg/mL	64 µg/mL	32	1	>64	1	>64	2	–
COc1ccc(Cn2ccnc2C(=O)O)cc1	0.38 µM	1 µg/mL	13 µM	0.84 µM	157 µM	10.9 µM	0.5 µg/mL	< 0.25 µg/mL	32 µg/mL	16 µg/mL	64 µg/mL	32	1	32	1	>64	4	–
C=CCCn1c(C)cnc1C(=O)O	0.8 µM	8 µg/mL	37.3 µM	3.77 µM	144 µM	48.6 µM	1 µg/mL	2 µg/mL	32 µg/mL	–	–	4	1	16	–	8	–	–
C=CCCn1ccnc1C(=O)O	1.05 µM	32 µg/mL	14.8 µM	4.72 µM	> 300 µM	> 300 µM	16 µg/mL	8 µg/mL	32 µg/mL	–	–	1	1	1	–	2	–	–

Molecules with a lower IC50 [3], results first:

IC50 [3]	MIC [4]	IC50 [5]	IC50 [6]	IC50 [7]	IC50 [8]	MIC [9]	MIC [10]	MIC [11]	MIC [12]	MIC [13]	SMILES	fold change (FC) [1]	fold change (FC) [2]	fold change (FC) [14]	fold change (FC) [15]	fold change (FC) [16]	fold change (FC) [17]	further results
0.019 µM	< 0.25 µg/mL	13.6 µM	0.38 µM	178 µM	14.4 µM	< 0.25 µg/mL	< 0.25 µg/mL	32 µg/mL	16 µg/mL	64 µg/mL	Nc1nc2ccc(Cn3ccnc3C(=O)O)cc2s1	>128	1	>64	1	>64	4	fractional inhibitory concentration index (FICI) [18]: 0.02; IC50 [19]: 0.014 µM; IC50 [20]: 0.076 µM; fractional inhibitory concentration index (FICI) [21]: 0.02; fractional inhibitory concentration index (FICI) [22]: 0.03; fractional inhibitory concentration index (FICI) [23]: 0.125; solubility [24]: < 2500 µg/mL
0.17 µM	4 µg/mL	5.04 µM	1.12 µM	118 µM	9.55 µM	1 µg/mL	< 0.25 µg/mL	32 µg/mL	16 µg/mL	64 µg/mL	O=C(O)c1nccn1Cc1ccc(O)cc1	8	1	16	1	>64	4	–
0.16 µM	1 µg/mL	1.89 µM	1.04 µM	131 µM	217 µM	0.5 µg/mL	< 0.25 µg/mL	32 µg/mL	64 µg/mL	64 µg/mL	Nc1nc2c(Cn3ccnc3C(=O)O)cccc2s1	32	1	32	1	>64	1	–
0.014 µM	4 µg/mL	1.37 µM	0.053 µM	98.9 µM	0.085 µM	0.5 µg/mL	1 µg/mL	16 µg/mL	16 µg/mL	32 µg/mL	O=C(O)c1nccn1Cc1cc(Br)cc(Br)c1	8	2	32	2	16	4	fractional inhibitory concentration index (FICI) [18]: 0.05; IC50 [19]: 0.048 µM; IC50 [20]: 0.11 µM; fractional inhibitory concentration index (FICI) [21]: 0.06; fractional inhibitory concentration index (FICI) [22]: 0.06; fold change (FC) [25]: 8

— ChEMBL document CHEMBL5154646, “Structure-guided optimization of 1H-imidazole-2-carboxylic acid derivatives affording potent VIM-Type metallo-β-lactamase inhibitors” (Eur J Med Chem, 2022)
